# Results: ChEMBL document CHEMBL5036302, “Amphiol, an Antifungal Fungal Pigment from Pseudogymnoascus sp. PF1464” (2021)
# Assays:
# Assay type in all cases: functional
# [1] = test system: Schizosaccharomyces pombe; test: Antifungal activity against Schizosaccharomyces pombe assessed as inhibition of fungal growth by CLSI protocol based microbroth dilution method
# [2] = test system: Candida albicans; test: Antifungal activity against Candida albicans assessed as inhibition of fungal growth by CLSI protocol based microbroth dilution method
# [3] = test system: Aspergillus fumigatus; test: Antifungal activity against Aspergillus fumigatus assessed as inhibition of fungal growth by CLSI protocol based microbroth dilution method
# [4] = test system: Staphylococcus aureus; test: Antibacterial activity against Staphylococcus aureus assessed as inhibition of bacterial growth by CLSI protocol based microbroth dilution method
# [5] = test system: Escherichia coli; test: Antibacterial activity against Escherichia coli assessed as inhibition of bacterial growth by CLSI protocol based microbroth dilution method
SMILES,MIC [1],MIC [2],MIC [3],MIC [4],MIC [5]
CC(/C=C/C=C/C=C/C=C/C=C/C=C/c1cc(O)c([C@@H]2O[C@H](CO)[C@@H](O)[C@H](O)[C@H]2O)c(=O)o1)=C\[C@H](C)C(=O)[C@@H](C)C[C@@H](C)[C@H](C)O,0.8 µg/mL,8 µg/mL,16 µg/mL,> 64 µg/mL,> 64 µg/mL
C[C@@H]1[C@H](O)[C@@H](C)/C=C/C=C/C=C/C=C/C=C/C=C/C=C/[C@H](O[C@@H]2O[C@H](C)[C@@H](O)[C@H](N)[C@@H]2O)C[C@@H]2O[C@](O)(C[C@@H](O)C[C@@H](O)[C@H](O)CC[C@@H](O)C[C@@H](O)CC(=O)O[C@H]1C)C[C@H](O)[C@H]2C(=O)O [AMPHOTERICIN B],0.13 µg/mL,,,,
